Structures can show the parent of a compound that is named as a salt.
Legend:
[1] = system: HORVS = Hordeum vulgare (spring barley); assay: Postemergence herbicidal safening, greenhouse, visual injury; type: in vivo; conditions: 20-22 d, listed as (1) TEA salt
Description: (§1) Seeds of the desired test plant species were planted in Sun Gro MetroMix® 306 planting mixture, which typically has a pH of 6.0 to 6.8 and an organic matter content of about 30 percent, in plastic pots with a surface area of 103.2 square centimeters (cm^2). When required to ensure good germination and healthy plants, a fungicide treatment and/or other chemical or physical treatment was applied. The plants were grown for 7-36 days (d) in a greenhouse with an approximate […] photoperiod which was maintained at about 18° C. during the day and 17° C. during the night. Nutrients and water were added on a regular basis and supplemental lighting was provided with overhead metal halide 1000-Watt lamps as necessary. The plants were employed for testing when they reached the second or third true leaf stage.
(§2) Weighed amounts of esters (methyl) or salts (TEA [triethylammonium], potassium [K]) of 4-amino-3-chloro-6-(4-chloro-2-fluoro-3-methoxyphenyl)pyridine-2-carboxylic acid (Compound 1) were dissolved in a volume of 97:3 volume/volume (v/v) acetone/dimethylsulfoxide (DMSO) to obtain stock solutions. […] The concentrated stock solutions were diluted with an aqueous mixture of 1.5% v/v of Agri-dex crop oil concentrate to provide the appropriate application rates. Compound requirements are based upon a 12 mL application volume at a rate of 187 liters per hectare (L/ha). Stocks solutions of the safeners were prepared following the same procedure. Spray solutions of the safeners and experimental compound mixtures were prepared by adding the appropriate volume of both stock solutions to the appropriate amount of dilution solution to form a 12 mL spray solution with active ingredients in two-way combinations. Formulated compounds were applied to the plant material with an overhead Mandel track sprayer equipped with 8002E nozzles calibrated to deliver 187 L/ha over an application area of 0.503 square meters (m^2) at a spray height of 18 inches (43 centimeters (cm)) above average plant canopy. Control plants were sprayed in the same manner with the solvent blank.
(§3) The treated plants and control plants were placed in a greenhouse as described above and watered by sub-irrigation to prevent wash-off of the test compounds. After 20-22 d, the condition of the test plants as compared with that of the control plants was determined visually and scored on a scale of 0 to 100 percent where 0 corresponds to no injury and 100 corresponds to complete kill.
(§4) Colby's equation was used to determine the herbicidal effects expected from the mixtures (Colby, S. R., Calculation of the synergistic and antagonistic response of herbicide combinations. Weeds 1967, 15, 20-22.).
(§5) The following equation was used to calculate the expected activity of mixtures containing two active ingredients, A and B: Expected=A+B−(A×B/100)
(§6) A=observed efficacy of active ingredient A at the same concentration as used in the mixture.
(§7) B=observed efficacy of active ingredient B at the same concentration as used in the mixture.

[2] = system: TRZAS = Triticum aestivum (spring wheat); assay: as above; type: in vivo; conditions: 20-22 d, listed as (1) TEA salt
Description: as §1, §2, §3, §4, §5, §6, §7

[3] = system: TRZAW = Triticum aestivum (winter wheat); assay: as above; type: in vivo; conditions: applied alone at 140 g/ha; 20-22 d; listed as (1) TEA salt
Description: as §1, §2, §3, §4, §5, §6, §7

[4] = system: TRZDU = Triticum durum (durum wheat); assay: as above; type: in vivo; conditions: applied alone at 140 g/ha; 20-22 d
Description: as §1, §2, §3, §4, §5, §6, §7

HORVW (winter barley) = assay: as above; type: in vivo, Hordeum vulgare; conditions: applied alone at 140 g/ha; 20-22 d; listed as (1) TEA salt
Description: as §1, with “stage. […]” for “stage.”
as §3, with “kill. […]” for “kill.”

[5] = system: KCHSC = Kochia scoparia (kochia); assay: Postemergence herbicidal activity, greenhouse, visual injury; type: in vivo; conditions: applied alone at 140 g/ha; 20-22 d; listed as (1) TEA salt
Description: as §1, §2, §3, §4, §5, §6, §7

[6] = system: MATCH = Matricaria chamomila (scented mayweed); assay: as above; type: in vivo; conditions: applied alone at 140 g/ha; 20-22 d; listed as (1) TEA salt
Description: as §1, §2, §3, §4, §5, §6, §7

[7] = system: SASKR = Salsola iberica (Russian thistle); assay: as above; type: in vivo; conditions: applied alone at 140 g/ha; 20-22 d; listed as (1) TEA salt
Description: as §1, §2, §3, §4, §5, §6, §7

[8] = system: STEME = Stellaria media (common chickweed); assay: as above; type: in vivo; conditions: applied alone at 140 g/ha; 20-22 d
Description: as §1, §2, §3, §4, §5, §6, §7

[9] = system: VERPE = Veronica persica (bird's-eye speedwell); assay: as above; type: in vivo; conditions: applied alone at 140 g/ha; 20-22 d; listed as (1) TEA salt
Description: as §1, §2, §3, §4, §5, §6, §7

[10] = system: VIOTR = Viola tricolor (wild pansy); assay: as above; type: in vivo; conditions: applied alone at 140 g/ha; 20-22 d; listed as (1) TEA salt
Description: as §1, §2, §3, §4, §5, §6, §7

[11] = system: LAMPU (purple deadnettle); assay: as above; type: in vivo, Lamium purpureum; conditions: applied alone at 140 g/ha; 20-22 d
Description: as §1, §2, §3, §4, §5, §6, §7

PAPRH (corn poppy) = assay: as above; type: in vivo, Papaver rhoeas; conditions: applied alone at 140 g/ha; 20-22 d
Description: as §1, §2, §3, §4, §5, §6, §7

POLCO (wild buckwheat) = assay: as above; type: in vivo, Polygonum convolvulus; conditions: applied alone at 140 g/ha; 20-22 d
Description: as §1, §2, §3, §4, §5, §6, §7

COc1c(Cl)ccc(-c2cc(N)c(Cl)c(C(=O)O)n2)c1F [Compound (1) TEA salt, 4-amino-3-chloro-6-(4-chloro-2-fluoro-3-methoxyphenyl)pyridine-2-carboxylic acid]
HORVS Ob (observed injury) ([1]; applied alone at 8.75 g/ha): 25% | HORVS Ob (observed injury) ([1]; applied alone at 35 g/ha): 23% | HORVS Ob (observed injury) ([1]; applied alone at 140 g/ha): 23% | TRZAS Ob (observed injury) ([2]; applied alone at 8.75 g/ha): 5% | TRZAS Ob (observed injury) ([2]; applied alone at 35 g/ha): 15% | TRZAS Ob (observed injury) ([2]; applied alone at 70 g/ha): 10% | TRZAS Ob (observed injury) ([2]; applied alone at 140 g/ha): 27% | TRZAW Ob (observed injury) [3]: 24% | TRZDU Ob (observed injury) [4]: 10% | HORVW Ob (observed injury) (HORVW (winter barley)): 15% | KCHSC Ob (observed injury) [5]: 95% | MATCH Ob (observed injury) [6]: 84% | SASKR Ob (observed injury) [7]: 86% | STEME Ob (observed injury) [8]: 88% | VERPE Ob (observed injury) [9]: 89% | VIOTR Ob (observed injury) [10]: 66% | LAMPU Ob (observed injury) [11]: 98% | PAPRH Ob (observed injury) (PAPRH (corn poppy)): 100% | POLCO Ob (observed injury) (POLCO (wild buckwheat)): 100%
